How the values were obtained:
[1] = system: ATR, Rad50, Rad51, Chk1, Chk2; assay: Western blotting of other DNA repair factors after 24 hours short-term exposure; type: cell-based, human; conditions: 20% O2, high concentrations
Experimental: To examine the protein levels of ATM and other DNA repair-related factors, total protein was purified from twice-passaged CDCs cultured under the abovementioned four different conditions, using well-established laboratory techniques. Briefly, harvested cells were homogenized in a lysis buffer containing a protease inhibitor mixture (Roche Applied Science) on ice. After centrifugation at 15,000 rpm for 10 min, the supernatant was collected for experiments. The equivalent of 30 μg of total protein was loaded onto 5% or 10% SDS-PAGE gels, and then transferred to PVDF membranes. […] Quantitation for blots was done by Quantity One software, and expressions were normalized by β-actin.
Twice-passaged cells were seeded in 6-well plates coated with 20 μg/ml fibronectin. […] The expression of ATM and other DNA repair-related factors was assessed by Western blotting as described above.

human CDCs = type: cell-based
Experimental: CDCs were expanded in conventional conditions under 20% O2 as described above. Twice-passaged CDCs and ES cells were used in these Examples. Cells were seeded in 96-well plates coated with 20 μg/ml fibronectin. […] After 24 hours of culture, cells were fixed, permeabilized and stained with rabbit polyclonal antibody against γ-H2AX (phosphor 5139, Abeam Inc.). After being washed, the cells were stained with a PE-conjugated secondary antibody and 4,6-diamidino-2-phenylindole (DAPI). Quantification of cells positive for γ-H2AX foci was performed by fluorescence microscopy (×40 magnification). Briefly, at least 5 images were captured from each culture condition from randomly-selected fields using Q-imaging (RETIGA EXi FAST, Canada) with the same exposure time. Cells with γ-H2AX foci in the nuclei were counted by a single observer blinded to treatment regimen, and the percentage of cells with γ-H2AX foci in each culture condition was used for statistical analysis.

[2] = system: human cardiosphere-derived cells; assay: Intracellular ROS levels (DCF fluorescence) after 24 hours short-term exposure; type: cell-based; conditions: 20% O2, antioxidant A 100-1,000,000-fold dilution, B 0.1-1000 μM, catalase 0.1-1000 units/ml, H2O2 0.1-1000 μM
Experimental: To assay intracellular ROS levels (ROS levels), twice-passaged CDCs were seeded in 6- or 96-well plates coated with 20 μg/ml fibronectin, and continuously cultured under the abovementioned four different conditions. At about 90% confluence, cells were incubated with 10 μM 2′,7′-dichlorodihydrofluorescein diacetate (DCFH-DA) (Invitrogen) for 60 min to allow DCFH-DA to diffuse into cells. The DCF fluorescence intensity in cells cultured in 96-well plates is directly determined using SpectraMax® M5 (Molecular Devices Corp.) with an excitation wavelength of 495 nm and an emission wavelength of 520 nm. Cells cultured in 6-well plates were trypsin-treated and fixed. The DCF fluorescence intensity in cells was analyzed using a FACS Calibur flow cytometer with CellQuest software (BD Biosciences).
Twice-passaged cells were seeded in 6- or 96-well plates coated with 20 μg/ml fibronectin. […] After 24 hours of culture, the DCF fluorescence intensity in cells was measured using the same methods as disclosed above.
CDCs were initially maintained in traditional 5% CO2/20% O2 culture condition and then seeded into 96-well plates and cultured for 24 hours under experimental conditions. […] Dev. for six separate experiments using different twice-passaged CDCs. (a.u.: arbitrary units. * p<0.01, †p<0.05 vs. the baseline levels, represented by “0” on the x-axis). […]

## catalase
[1]
  expression levels of ATR, Rad50, Rad51, Chk-1, and Chk-2: slightly or obviously decreased
Human CDCs
  percentage of CDCs with γ-H2AX foci (DNA damage), dose response: A similar result
[2]
  ROS levels, dose response: decreased

## OO [Antioxidant H2O2, hydrogen peroxide]
[1]
  expression levels of ATR, Rad50, Rad51, Chk-1, and Chk-2: increased
Human CDCs
  percentage of CDCs with γ-H2AX foci (DNA damage), dose response: increased DNA damage dose-dependently
[2]
  ROS levels, dose response: increased

From US9845457B2, “Maintenance of genomic stability in cultured stem cells” (Cedars-Sinai Medical Center, priority 2010, dated 2017)
